In patent publication US4596789A, “Proline derivatives” (ICI Americas Inc., priority 1983, dated 1986):
Starred links: 1 amine or outer side, 2 acyl side, 3 side chain; linkers in the order of their positions; H or OH if unused. Non-standard residues stand in square brackets, D forms with d. Residues, ends and D or L forms follow the SMILES beside them. *: point of attachment. Suc = O=C(CCC(=O)[*:2])[*:1]; MeOSuc = COC(=O)CCC(=O)*; Cbz = O=C(OCc1ccccc1)*; Boc = CC(C)(C)OC(=O)*; CO = O=C([*:1])[*:2]

How the values were obtained:
[1] = target: T1, human leukocyte elastase (HLE) (Homo sapiens, UniProt P08246); assay: Inhibition of human leukocyte elastase acting on a peptide p-nitroanilide substrate, Ki from Dixon plot; type: biochemical; settings: room temperature; 16.6% (v/v) DMSO, pH 8.1; substrate methoxysuccinyl-alanyl-alanylprolyl-valine-p-nitroanilide 1.6×10^-4 molar; read-out: Ki, dissociation constant of the inhibitor-HLE complex
T1 construct: The HLE enzyme used in these studies may be obtained according to B. R. Viscarello et al. in Preparative Biochemistry, Vol. 13 (1983); from tissue; The enzyme was isolated by a cited preparative procedure. b8 says HLE is released from the granules of polymorphonuclear leukocytes
T1 sequence (P08246 30-267): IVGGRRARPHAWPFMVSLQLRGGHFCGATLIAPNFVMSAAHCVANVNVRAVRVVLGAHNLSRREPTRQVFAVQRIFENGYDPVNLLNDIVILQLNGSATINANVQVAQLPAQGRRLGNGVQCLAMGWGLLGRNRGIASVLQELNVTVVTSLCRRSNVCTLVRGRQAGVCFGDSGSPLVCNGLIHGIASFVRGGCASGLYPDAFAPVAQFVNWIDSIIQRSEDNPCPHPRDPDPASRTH
Protocol: The potency of compounds of the invention to act as elastase inhibitors was determined by the ability of a compound of the invention to inhibit the action of human leukocyte elastase (HLE) on a low molecular weight peptide substrate. The potency of an inhibitor is evaluated by obtaining a kinetic determination of the dissociation constant, Ki, of the complex formed from the interaction of the inhibitor with HLE. The substrate used was the anilide methoxysuccinyl-alanyl-alanylprolyl-valine-p-nitroanilide as described by K. Nakajima et al. in The Journal of Biological Chemistry, Vol. 254, pages 4027-4032 (1979) and by T. Teshima et al. in The Journal of Biological Chemistry, Vol. 257, No. 9, pages 5085-5091 (1982). The HLE enzyme used in these studies may be obtained according to B. R. Viscarello et al. in Preparative Biochemistry, Vol. 13 (1983).
From HLE enzyme obtained as described in the Viscarello et al reference, a standard rate of production of p-nitroaniline was measured at room temperature spectrophotometrically in the visible spectrum at 410 nanometers, with automatic data acquisition in a Cary 210-Apple III Plus microcomputer system obtained from Varian Associates. Reactions were initiated by injection of a small aliquot (50 or 100 microliters) of a stock solution of the anilide substrate in DMSO into a curvette containing buffer and HLE enzyme. The amount of HLE used is sufficient to produce an initial velocity of about 0.01 OD (optical density) per minute. Final volume was 3.0 ml. Initial velocities of production of p-nitroaniline were determined from linear regression analysis of at least 30 data points (OD410 vs. time) taken during the initial, linear, portion of the reaction. The initial velocity for the HLE sample without any inhibitor being present was obtained and used as a standard for the subsequent determination of the initial velocity of the reaction in the presence of an inhibitor to be tested. The Ki value of a particular inhibitor was determined as follows. To a 3 ml cuvette were added […] of a buffer (9 millimolar sodium phosphate, 10% DMSO (v/v), pH=7.9), 100 microliters of inhibitor solution in DMSO and 20 microliters of HLE stock solution at the same concentration used in the control. After the inhibitor and enzyme solution had equilibrated, the reaction was initiated by the addition of 100 microliters of the stock substrate solution in DMSO. The final solution was 16.6% (v/v) in DMSO, with pH 8.1. The substrate was at an initial concentration of 1.6×10^-4 molar. […]

[2] = Pharmacokinetics: serum level of inhibitor after subcutaneous injection; type: in vivo, Male Syrian hamsters; settings: serum inhibitor concentration vs time
Protocol: Pharmacokinetics: Male Syrian hamsters (80 to 120) g) are injected subcutaneously with the test compound. Prior to injection and at varying time periods thereafter they are lightly anesthetized with ether and blood samples of approximately 0.2 ml each are withdrawn by cardiac puncture. The blood is expressed into 2 ml centrifuge tubes and allowed to clot for one hr. The sample is then centrifuged and the serum removed. Blood samples are taken before (time 0) and 15, 30, 60, 90 and 120 minutes after subcutaneous administration of the test compound in an appropriate vehicle.
Drug levels are determined by first inactivating endogenous elastase inhibitors by incubation of 50 microliters of serum with an equal volume of buffer containing 5 mg/ml bovine pancreatic trypsin for 5 min. […] After an additional 2 min. incubation, the reaction is started by the addition of substrate (100 microliters) (MeOSuc-Ala-Ala-Pro-Val-pNA, 1.6 mM) and the reaction monitored spectrophotometrically at a wavelength of 410 nm. Serum concentrations of the test compounds are determined by the following equation: [formula] where [I], [E] and [S] are the assay concentrations of inhibitor enzyme and substrate respectively, Ki is the inhibition constant of the inhibitor being assayed, Km is the Michaelis constant of the substrate, Vo is the control uninhibited reaction velocity, and Vi is the inhibited reaction velocity. […]

[3] = target: T2, human leukocyte elastase (Homo sapiens, UniProt P08246); settings: reported by Szabo et al. 1982, cited from earlier work
T2 sequence (P08246 30-267): T1 sequence (P08246 30-267)

With `COC(=O)[C@H](CC(C)C)NC(=O)N[C@H](C(=O)N1CCC[C@H]1C(=O)N[C@H](C=O)C(C)C)C(C)C` [Example 32g, N-[1(S)-Carbomethoxy-3-methylbutyl]carbamoyl-L-valyl-L-prolyl-L-valinal] ({OMe-Leu-CO}-Val-Pro-Val-aldehyde) the Ki [1] was 94 nM.
`CC(C)[C@H](NC(=O)[C@H](CCCCNC(=O)OCc1ccccc1)NC(=O)OC(C)(C)C)C(=O)N1CCC[C@H]1C(=O)N[C@H](C=O)C(C)C` [Example 1f, N-alpha-t-Butyloxycarbonyl-N-epsilon-benzyloxycarbonyl-L-lysyl-L-valyl-L-p rolyl-L-valinal] (Boc-K(Cbz)VPV-aldehyde) gave a Ki [1] of 15 nM.
For `CC(C)[C@H](NC(=O)[C@H](CCCCNC(=O)OCc1ccccc1)NC(=O)CCC(=O)O)C(=O)N1CCC[C@H]1C(=O)N[C@H](C=O)C(C)C` [Example 5b, N-alpha-Succinyl-N-epsilon-benzyloxycarbonyl-L-lysyl-L-valyl-L-prolyl-L-va linal] (Suc-K(Cbz)VPV-aldehyde), the Ki [1] was 30 nM and the “activity in animals as measured by the pharmacokinetics test” value [2] was “good activity in animals”.
For `CC(C)[C@@H](C=O)NC(=O)[C@@H]1CCCN1C(=O)[C@@H](Cc1ccccc1)NC(=O)CCC(=O)O` [N-succinyl-D-phenylalanyl-L-prolyl-L-valinal] (Suc-[dF]-Pro-Val-aldehyde), the “stronger inhibition than the other four aldehydes” value [3] is listed as 10-100 times and the Ki ([3]; read-out: Ki (HLE inhibition)) is listed as 40000 nM.
For `COC(=O)CCC(=O)N[C@@H](CCCCNC(=O)OCc1ccccc1)C(=O)N[C@H](C(=O)N1CCC[C@H]1C(=O)N[C@H](C=O)C(C)C)C(C)C` [Example 8b, N-alpha-Methoxysuccinyl-N-epsilon-benzyloxycarbonyl-L-lysyl-L-valyl-L-prol yl-L-valinal] (MeOSuc-K(Cbz)VPV-aldehyde), the Ki [1] was 6 nM.
